According to patent publication US8716183B2, “Control of aquatic weeds with endothall and ALS-inhibiting agent” (SePro Corporation, priority 2008, dated 2014):

Tests used:
[1] = system: hydrilla (Hydrilla verticillata); experiment: Field Study 1: hydrilla control in a 6 acre lake divided into three zones; type: in vivo; details: 21 days after treatment
Description: A 6 acre somewhat rectangular-shaped lake was divided into three 2 acre zones for this testing. A 2-acre test site (Zone 1), located on the northern one-third of the lake, was treated with a penoxsulam plus endothall combination in order to evaluate control of the exotic aquatic weed, hydrilla (Hydrilla verticillata). Within a 50 gallon spray tank system powered by a 5.5 Hp Honda motor, 0.523 gallons Galleon SC (a commercially available penoxsulam formulation) and 12.7 gallons Aquathol K (a commercially available endothall formulation) were added to 36.78 gallons of water. The herbicide combination mixture delivered an application dose of 15 parts per billion penoxsulam and 0.71 ppm a.e. endothall to Zone 1. This herbicide mixture was evenly injected using a trailing hose over the airboat bow throughout the 2 acre Zone 1. On the day of treatment, Zone 1 contained approximately 90% hydrilla coverage, with growth near or at the water surface.
The remaining 4 acres (both Zone 2 (central one-third) and Zone 3 (southern one-third)) of the lake were treated with 15 ppb penoxsulam alone on the same day. Both Zones 2 and 3 contained approximately 90-95% hydrilla coverage at that time.
Twenty one days following the initial treatment, the hydrilla was assessed for herbicidal injury within Zones 1, 2, and 3. […] Approximately 10% of the original plant volume remained near the water's surface; the balance had fallen to the lake bottom. The same was true for a 1 acre area contiguous down lake to Zone 1 moving into Zone 2. All remaining hydrilla plants suspended in the water column within the 3 acres were expressing severe injury.
On this date, 0.71 ppm a.e. endothall (12.7 gallons Aquathol K) was applied to Zone 3 in order to evaluate contact herbicidal efficacy 21 days following a penoxsulam treatment.

[2] = system: hydrilla; experiment: Penoxsulam+endothall under static exposure to hydrilla, GR50 and Isobole analysis; type: in vivo, Hydrilla verticillata; details: harvested 55 days after treatment, n = 3, endothall as a.e., combinations as total ppb
From the text: (§1) Single apical meristems of hydrilla, collected from Florida, were planted into small pots (13.5 cm length×3.75 cm diameter) containing Wallace Farm® topsoil amended with 14-14-14 slow release Osmocote® fertilizer (˜2.5 g Osmocote/kg soil) on 18 Jul. 2008. Approximately 5 to 7 cm of the apical section extended above the sediment at planting, and a sand cap was placed over the potting soil (˜2 cm deep). Plants were then transferred to a 12 L acrylic tanks filled with well water. Tanks were maintained in a growth room with 14:10 h photoperiod at 26° C. Plants were allowed to establish growth for 14 days before treatment.
(§2) Treatments were replicated three times in a completely randomized design. […] All concentrations are expressed as a.e. for endothall.
All above ground biomass was harvested 55 days after treatment. Biomass was dried to constant moisture at 70° C., and dry weights were determined. Data were subjected to regression analysis using Sigma Plot software, and a GR50 was determined (concentration causing a 50% reduction in dry weight). All data were analyzed for synergism/antagonism using the Isobole analysis at the 95% confidence level (estimated using linear interpolation from 95% confidence bands) (Berenbaum, M. C. 1989, Pharmacological Reviews. 41:93-141; Streibig, J. C. 2003, Assessment of herbicide effects: http://www.ewrs.org/et/images/, Herbicide interaction.pdf). […]

[3] = system: hydrilla; experiment: Penoxsulam+endothall under multiple exposures to hydrilla, dry weight and Colby analysis; type: in vivo, Hydrilla verticillata; details: for Mean dry weight of hydrilla: penoxsulam 0.02, endothall 0.68 mg/L a.e.; for OBSERVED RESPONSE: penoxsulam 0.02, endothall 0.68 mg/L; for hydrilla biomass compared to untreated controls (LSD, p = 0.05): penoxsulam 0.02 or endothall 0.68 mg/L a.e. alone, 3 to 48 day exposures
From the text: Apical sections (12 to 15 cm in length) of hydrilla, collected from Florida, were planted into small pots (13.5 cm length×3.75 cm diameter) containing Wallace Farm® topsoil amended with 14-14-14 slow release Osmocote® fertilizer (˜2.5 g Osmocote/kg soil) on 16 Oct. 2008. Approximately 5 to 7 cm of the apical section extended above the sediment at planting, and a sand cap was placed over the potting soil (˜2 cm deep). Plants were then transferred to a 12 L acrylic tanks filled with well water. Tanks were maintained in a growth room with 14:10 h photoperiod at 26° C. Plants were allowed to grow for 8 days before the following treatments were initiated in triple replicate: • A) Untreated controls • B) Penoxsulam at 0.02 mg/L • C) Endothall at 0.68 mg/L a.e. • D) Simultaneous treatment • a. Penoxsulam 0.02 mg/L+endothall at 0.68 mg/L • i. Exposure times • 1. 3 days • 2. 6 days • 3. 12 days • 4. 24 days • 5. 48 days (static) • E) Sequential treatment • a. Penoxsulam 0.02 mg/L, add 0.68 mg/L endothall 24 days later—static exposure to combination • b. Endothall at 0.68 mg/L, add 0.02 mg/L penoxsulam 24 days later—static exposure to combination • c. Penoxsulam 0.02 mg/L, add 0.68 mg/L endothall 12 days later—12 day exposure to combination • d. Endothall at 0.68 mg/L, add 0.02 mg/L penoxsulam 12 days later—12 day exposure to combination • e. Penoxsulam 0.02 mg/L, add 0.68 mg/L endothall 6 days later—6 day exposure to combination • f. Endothall at 0.68 mg/L, add 0.02 mg/L penoxsulam 6 days later—6 day exposure to combination
Endothall was formulated as Aquathol K® (4.23 #/gallon dipotassium salt, or 3#/gallon a.e.); penoxsulam was formulated as Galleon SC® (2#/gallon active ingredient). All concentrations are expressed as a.e. for endothall. At each exposure time, plants were removed from treatments and placed in a tank with fresh water containing no herbicide (including controls) to remove the aqueous exposure and allow for recovery.
Plants were harvested at 48 days after initial treatment. At harvest, plants were rinsed free of algae and placed in paper sacks in a drying oven for 4 days at 70° C. temperature. Mean dry weights were determined and means separated using least significant differences. Difference between observed and expected responses was determined to evaluate potential interactions using methods reported by Colby (Colby S. R. 1967. Weeds. 15:20-22).

[4] = system: hydrilla; details: cited from earlier work
[5] = system: hydrilla; experiment: Imazamox+endothall under static exposure to hydrilla, GR50 and Isobole analysis; type: in vivo, Hydrilla verticillata; details: harvested 34 days after treatment, n = 3, endothall as a.e., combinations as total ppb
From the text: as §1, with “on 4 Nov.” for “on 18 Jul.”, “for 10” for “for 14”
as §2
All above ground biomass was harvested 34 days after treatment. Biomass was dried to constant moisture at 70° C., and dry weights were determined. Data were subjected to regression analysis using Sigma Plot software, and a GR50 was determined (concentration causing a 50% reduction in dry weight). All data were analyzed for synergism/antagonism using the Isobole analysis at the 95% confidence level (estimated using linear interpolation from 95% confidence bands) (refer to Example 2 for more information on Isobole analysis).

[6] = Zone 3 and southern portion of Zone 2, 15 ppb penoxsulam alone
[7] = 3-d exposure, harvested 48 days after initial treatment, n = 3
[8] = 6-d exposure (f/b: second agent added 6 days later, 6 day exposure to combination), harvested at 48 days
[9] = 12-d exposure (f/b: second agent added 12 days later, 12 day exposure to combination), harvested at 48 days
[10] = 24-d exposure (f/b: second agent added 24 days later, static exposure to combination), harvested at 48 days
[11] = 48-d (static) exposure, harvested at 48 days

For COc1cnc(OC)n2nc(NS(=O)(=O)c3c(OCC(F)F)cccc3C(F)(F)F)nc12 [Penoxsulam, 2-(2,2-difluoroethoxy)-6-trifluoromethyl-N-(5,8-dimethoxy[1,2,4]triazolo[1,5c]pyrimidin-2-yl)benzenesulfonamide], the hydrilla control [1, 6] was “no control was observed”, the “hydrilla remaining near the water's surface” value [1, 6] was “Approximately 90%” and the “herbicidal injury of hydrilla” value ([1]; Zones 2 and 3, 15 ppb penoxsulam alone) was “slight but expected penoxsulam injury”. For the same compound, the “GR50 (concentration causing a 50% reduction in dry weight)” value [2] was 12 ppb, the “Mean dry weight of hydrilla” value [3, 7] was 4.01a and the “Mean dry weight of hydrilla” value [3, 8] was 3.97a. The “Mean dry weight of hydrilla” value [3, 9] was 3.68ab, the “Mean dry weight of hydrilla” value [3, 10] was 3.24ab and the “Mean dry weight of hydrilla” value [3, 11] was 2.41ab. For the same compound, the “OBSERVED RESPONSE” value ([3]; exposure 3 days) was 115% of control, the “OBSERVED RESPONSE” value ([3]; exposure 6 days) was 95% of control and the “OBSERVED RESPONSE” value ([3]; exposure 12 days) was 97% of control. The “OBSERVED RESPONSE” value ([3]; exposure 24 days) was 72% of control, the “OBSERVED RESPONSE” value ([3]; exposure 48 days) was 52% of control and the “hydrilla biomass compared to untreated controls (LSD, p = 0.05)” value [3] was “not significantly different from untreated controls”. The “time before severe injury is expressed” value ([4]; penoxsulam treated hydrilla, typical) was “about 60 days”.
With O=C(O)[C@@H]1[C@H](C(=O)O)[C@H]2CC[C@@H]1O2 [Endothall, 3,6-endoxohexahydrophthalic acid] the “GR50 (concentration causing a 50% reduction in dry weight)” value [2] was 309 ppb, the “Mean dry weight of hydrilla” value [3, 7] was 2.24b and the “Mean dry weight of hydrilla” value [3, 8] was 2.61ab. For the same compound, the “Mean dry weight of hydrilla” value [3, 9] was 2.72c, the “Mean dry weight of hydrilla” value [3, 10] was 2.14bc and the “Mean dry weight of hydrilla” value [3, 11] was 1.62b. The “OBSERVED RESPONSE” value ([3]; exposure 3 days) was 64% of control, the “OBSERVED RESPONSE” value ([3]; exposure 6 days) was 62% of control and the “OBSERVED RESPONSE” value ([3]; exposure 12 days) was 48% of control. The “OBSERVED RESPONSE” value ([3]; exposure 24 days) was 47% of control, the “OBSERVED RESPONSE” value ([3]; exposure 48 days) was 35% of control and the “hydrilla biomass compared to untreated controls (LSD, p = 0.05)” value [3] was “reduced hydrilla biomass compared to untreated controls at all exposure periods, except 3 and 6-day”. The “GR50 (concentration causing a 50% reduction in dry weight)” value [5] was 520 ppb, the hydrilla control ([4]; 0.71 ppm a.e. endothall partial area/spot treatment, general) was “essentially no hydrilla control” and the “time before hydrilla plants defoliate and drop toward the lake bottom” value ([4]; 1.4 to 3.5 ppm a.e. endothall, typical, dependent on plant maturity) was 2-6 weeks. The “contact with hydrilla required to achieve effective control” value ([4]; Netherland et al. 1991) was “less than 72 hours”.
For COCc1cnc(C2=NC(C)(C(C)C)C(=O)N2)c(C(=O)O)c1 (stereo not drawn) [Imazamox], the “GR50 (concentration causing a 50% reduction in dry weight)” value [5] was 680 ppb.
